Measured values from article PMC10451648 (Antibiotics, 2023).
Converted amounts (≈) assume the structure as drawn. “Also recorded” adds a separate entry of the source. Square brackets hold non-standard residues; d marks the D form. Peptide text beside a SMILES is read from it. Aib = CC(C)(N)C(=O)O

Experiments:
[1] = tested on: Escherichia coli DH5α; assay type: cell-based; conditions: broth microdilution, 10^4 CFUs per mL, 18 h at 35 °C; MIC = lowest concentration that completely inhibited bacterial growth; final conc. 0.39 to 100
Procedure: (§1) The antimicrobial activities of peptides 1–8 against Gram-positive Staphylococcus aureus, Gram-negative Escherichia coli DH5α, Pseudomonas aeruginosa, and multidrug-resistant P. aeruginosa (MDRP) were evaluated. The minimum inhibitory concentration (MIC) against these bacteria was measured as an indicator of antimicrobial activity, and the results are discussed in Table 2.
(§2) One type of Gram-positive bacteria, S. aureus NBRC 13276, and three Gram-negative bacteria, E. coli DH5α, P. aeruginosa NBRC 13275, and MDRP, were selected for the evaluation of the antimicrobial activity of the synthesized peptides. The selected bacterial strains were obtained from the Biological Resource Center, NITE (NBRC; Tokyo, Japan), and Escherichia coli DH5α cells were purchased from BioDynamics Laboratory, Inc. (Tokyo, Japan). The antimicrobial activities of the tested peptides 1–8 against each stain were examined by the standard broth microdilution method, as previously reported. Briefly, the bacteria were seeded and grown overnight at 37 °C on Agar media for other organisms i (Agar medium) and then collected with the media for other organisms ii (liquid medium), according to the 17th revision of Japanese Pharmacopoeia. Next, 10 μL of the peptide solution per well was added to each well of a sterile 96-well plate, and 90 μL per well of inoculation was mixed with 10^4 CFUs (colony forming units) per mL and added to each well, and the plate was incubated for 18 h at 35 °C.

[2] = tested on: P. aeruginosa NBRC 13275; assay type: cell-based, Pseudomonas aeruginosa; conditions: NBRC 13275, 18 h
Procedure: as §1, §2

[3] = tested on: multidrug-resistant P. aeruginosa (MDRP); assay type: cell-based, Pseudomonas aeruginosa; conditions: multidrug-resistant (MDRP, 18 h)
Procedure: as §1, §2

[4] = tested on: S. aureus NBRC 13276; assay type: cell-based, Staphylococcus aureus; conditions: NBRC 13276, 18 h
Procedure: as §1, §2

[5] = tested on: human red blood cells; test: Hemolysis activity against red blood cells; conditions: human RBCs in 172 mM Tris-HCl pH 7.6, 30 min at 37 °C, absorbance 535 nm; DMSO = 0%, M-Lycotoxin = 100%; final peptide conc. 100 to 0.39
Procedure: AMPs primarily target microbial membranes, leading to their antimicrobial activity through membrane lysis. However, it is important to consider their potential effects on human cell membranes, as this could raise concerns regarding cytotoxicity. […] Hemolytic activity was assessed by measuring the absorption at 535 nm, which indicates the leakage of red blood cell cytoplasmic contents and hemoglobin.
Human red blood cells (RBCs) were supplied by the Japanese Red Cross Society (Tokyo, Japan). The hemolytic assay of the synthesized peptides was performed as previously reported. Briefly, 5.0 mL of the total erythrocytes were washed three times with 172 mM Tris-HCl buffer (pH = 7.6, wash buffer:WB) and 1.0 mL of precipitated erythrocytes was diluted with 9.0 mL of WB. Then, 0.5 mL of the suspension was diluted in WB, and 50 µL of RBC solution was incubated with 50 µL of each peptide for 30 min at 37 °C (final peptide conc. from 100 to 0.39 μM). The suspensions were then centrifuged at 400 rpm for 5 min. The absorbance of the supernatant was measured at a wavelength of 535 nm. M-Lycotoxin [22], which is a typical hemolytic toxic peptide derived from Wolf spider, was used as a positive control, and the absorbance of the sample from DMSO and M-Lycotoxin treatment was defined as 0 and 100%, respectively.

[6] = molecular target: Proteinase K (Parengyodontium album, UniProt P06873); test: Digestion assay with proteinase K; assay type: in vitro ADME; conditions: 0.002% (v/v) proteinase K, peptide 1 mM, 37 °C, 24 h; fragments by LC-MS
Sequence of Proteinase K (P06873 106-384): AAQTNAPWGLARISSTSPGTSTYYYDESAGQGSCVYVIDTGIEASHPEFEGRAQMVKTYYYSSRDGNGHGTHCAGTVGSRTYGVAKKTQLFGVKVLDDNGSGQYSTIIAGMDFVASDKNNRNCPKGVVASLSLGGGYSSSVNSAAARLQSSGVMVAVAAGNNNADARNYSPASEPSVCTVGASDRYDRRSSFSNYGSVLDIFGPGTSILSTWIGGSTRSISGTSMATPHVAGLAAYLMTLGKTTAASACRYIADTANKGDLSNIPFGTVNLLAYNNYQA
Procedure: The chemical stability of 17KKV-Aib (1) was investigated using a digestion assay with proteinase K, which is a widely used representative protease for assessing sensitivity to digestive enzymes. Proteinase K is widely recognized for its ability to cleave peptide bonds on the carboxylic sides of aliphatic, aromatic, or highly hydrophobic amino acids. Peptide 1 was treated with proteinase K for 24 h, and the remaining peptide fragments were evaluated using liquid phase chromatography–mass spectrometry (LC-MS) analysis. […] All the peptides were synthesized using Fmoc-assisted solid-phase methods by Liberty Blue. […]
Each peptide (1 mM) was treated with 0.002% (v/v) Proteinase K, and the mixture was incubated at 37 °C for 2–24 h. […] The residual peptides were assessed by analytical HPLC using an InertSustainSwift C18 column (3 µm, 25 cm × 4.6 mm, solvent A: water containing 0.1% TFA, solvent B: MeCN containing 0.1% TFA, flow rate: 1.0 mL/min, gradient: 10–90% gradient of solvent B over 30 min). The digestion assay was performed in two independent experiments, and the average values from them were calculated. […]
Figure 4 Chemical stability of the peptides 1–8 against proteinase K. Each peptide was incubated with 0.002% (v/v) proteinase K for the indicated times at 37 °C, and the residuals were evaluated by LC-MS. […]

CC[C@H](C)[C@H](NC(=O)CN)C(=O)N[C@@H](CCCCN)C(=O)N[C@@H](CCCCN)C(=O)N[C@@H](Cc1ccccc1)C(=O)N[C@@H](CC(C)C)C(=O)N[C@@H](CCCCN)C(=O)N[C@@H](CO)C(=O)NC(C)(C)C(=O)N[C@@H](CCCCN)C(=O)N[C@@H](CCCCN)C(=O)N[C@@H](Cc1ccccc1)C(=O)N[C@H](C(=O)N[C@@H](CCCCN)C(=O)NC(C)(C)C(=O)N[C@@H](Cc1ccccc1)C(=O)N[C@@H](CCCCN)C(N)=O)C(C)C [Peptide 1] (H-GIKKFLKS[Aib]KKFVK[Aib]FK-NH2)
MIC, E. Coli DH5α, Gram(−) [1]: 1.56 µM (≈ 3.11 µg/mL) | MIC, P. aeruginosa, Gram(−) [2]: 3.125 µM (≈ 6.24 µg/mL) | MIC, MDRP [3]: 6.25 µM (≈ 12.5 µg/mL) | MIC, S. aureus, Gram(+) [4]: 12.5 µM (≈ 24.9 µg/mL) | Hemolysis (concentration at which hemolytic activity is exhibited) [5]: 100 µM | Cleavage site upon proteinase K treatment [6]: between 5th Phe and 6th Leu and 16th Phe and 17th Lys residues; also recorded: between the fifth Phe and sixth Leu residues
